Values after ≈ are worked out from the molar mass of the structure shown.
Tested on: A2780
Experiment: Cytotoxicity against human A2780 cells
Format: functional, cell-based

Structure (SMILES) | IC50 [mg/L]
CC(C)=C1C/C=C(\C)CC/C=C(\C)CC1 | 6.4 (≈ 31.3 µM)
C[C@H]1[C@H](C)CC[C@]2(C)CC[C@]3(C)C(=CC[C@@H]4[C@@]5(C)CC[C@H](O)C(C)(C)[C@@H]5CC[C@]43C)[C@H]12 | 20.6 (≈ 48.3 µM)
CC1(C)CC[C@]2(C)CC=C3[C@]4(C)CC[C@H]5C(C)(C)[C@H](O)CC[C@]5(C)[C@H]4CC[C@@]3(C)[C@@H]2C1 | 24.4 (≈ 57.2 µM)
CC(=O)O[C@H]1O[C@H]2C[C@@]13CC=C1[C@]4(C)[C@@H]5O[C@@H]5[C@H]5C(C)(C)[C@H](O)CC[C@]5(C)[C@H]4CC[C@@]1(C)[C@@H]3CC2(C)C | 21.5 (≈ 41.9 µM)
CC1=C2C[C@H]3O[C@]3(C)CC[C@H]3O[C@@]3(C)C[C@@H]2OC1=O | 3.8 (≈ 14.4 µM)
CC1=C2C/C=C(\C)CC/C=C(\C)C[C@@H]2OC1=O [GLECHOMANOLIDE] | 5.3 (≈ 22.8 µM)
C=C[C@]1(C)C[C@@H]2OC(=O)C(C)=C2C[C@H]1C(=C)C [ISOGERMAFURENOLIDE] | 4.5 (≈ 19.4 µM)
C=C(C)[C@@H]1CC[C@]2(C)CC[C@]3(C)[C@H](CC[C@@H]4[C@@]5(C)CC[C@H](OC(C)=O)C(C)(C)[C@@H]5CC[C@]43C)[C@@H]12 [LUPENYL ACETATE] | 22.6
C=C(C)[C@@H]1CC[C@]2(C)CC[C@]3(C)[C@H](CC[C@@H]4[C@@]5(C)CC[C@H](O)C(C)(C)[C@@H]5CC[C@]43C)[C@@H]12 [LUPEOL] | 26.4 (≈ 61.9 µM)
CC1(C)CC[C@]2(C)CC=C3[C@]4(C)CC[C@H]5C(C)(C)[C@@H](O)CC[C@]5(C)[C@H]4CC[C@@]3(C)[C@@H]2C1 [TARAXEROL] | 21.8 (≈ 51.1 µM)

— ChEMBL document CHEMBL1151217, “New cytotoxic terpenoids from the wood of Vepris punctata from the Madagascar Rainforest” (J Nat Prod, 2004)
